From patent US12465618B2, “Compositions and methods for degenerative disc regeneration” (University Health Network, priority 2015, dated 2025) come the findings set out here.

What all share (format): cell-based
One test relates to rat NP cells. Briefly: Western blotting of rat NP cells treated with IL-1β/TNFα with or without inhibitors or growth factors. Particulars: rat-tail NP cells treated with IL-1β and TNFα, Western blot, FIG. 5g-5h. As to the method:
(§1) After euthanasia, healthy rat lumbar/caudal spine IVDs, injured tail discs and bovine caudal IVD NPs were removed aseptically and the nucleus pulposus (NP) was removed separately and enzymatically digested according to methods established by the present inventors^16. Similarly, human degenerative disc NPs were enzymatically digested using Pronase (0.4%, 1 hr at 37° C.) followed by Collagenase II treatment (0.015%, O/N, 37° C.). The following day, the cells were filtered with a 70p cell strainer and cultured within a hypoxic incubator (NuAire, MN, USA) in 3.5% O2, 5% CO2, in Advanced Dulbecco's modified Eagle's medium (ADMEM) supplemented with 8% fetal bovine serum (FBS) and penicillin and streptomycin (100 U/mL). For treatments, the cells were either cultured in serum free ADMEM (no treatment controls) or treated with interleukin-1β (IL-1β, 10 ng/mL), tumor necrosis factor-alpha (TNFα, 50 ng/mL), connective tissue growth factor (CTGF, 10-100 ng/mL), Wnt-inducible soluble protein 2 (WISP2, 10-100 ng/mL) or transforming growth factor beta 1 (TGFβ1, 5-20 ng/mL) for various time points under hypoxic conditions.
(§2) Equal amounts of whole cell or tissue lysates prepared using RIPA lysis buffer were subjected to Western blotting as described earlier^18,19. Total lysates (30 μg) were resolved on 10% sodium dodecyl sulphate-polyacrylamide gels (SDS-PAGE) under reducing conditions and then proteins were electro-transferred onto polyvinyledendifluoride (PVDF) membranes (BioRad, CA). After blocking with 5% non-fat powdered milk in Tris-buffered saline (TBS, 0.1 M, pH=7.4), blots were incubated with rabbit or goat polyclonal/mouse monoclonal primary antibodies at 4° C. overnight. […] Blots were washed three times with TTBS for 15 minutes and protein bands were detected by the enhanced chemiluminescence method (BioRad, CA) on Kodak Hyperfilm.

Test [1] deals with human degenerative disc NP cells. Briefly: Western blotting of human degenerative disc NP cells. Particulars: within 24 hrs. As to the method: as §1, §2
In general terms: A western blot detects proteins with antibodies after separation by electrophoresis.

Test [2] concerns human degenerated disc NP cells. Briefly: BrdU-ELISA cell proliferation assay. The conditions noted are these: 72 hrs. As to the method:
(§3) Nucleus pulposus cells (rat, bovine and human) were plated in 96-well flat bottom plates in order to evaluate the effect of treatment with growth factors in cell viability and proliferation assays. Rat NP cells were treated with CTGF, WISP-2 and TGFβ1 in a dose (1 ng/mL-100 ng/mL) and time dependent manner (24 hrs-96 hrs) to determine the optimum dose and time for the assessment of these growth factors on viability. Cell viability was determined using 3-(4,5-dimethylthiazol-2-yl)-2,5-diphenyltetrazolium bromide (MTT, Sigma-Aldrich, USA) as previously described^44. A BrdU-ELISA (colorimetric) assay (Cat #ab126556, Abcam) was used for determining the effect of treatment with CTGF or TGFβ1 on human and rat NP cells (healthy/injured) following the manufacturer's instructions. Briefly, NP cells were treated with CTGF or TGFβ1 alone or in combination for 48 hrs following addition of BrdU reagent O/N in each well. Incorporated BrdU in DNA of proliferating cells was determined using anti-BrdU antibody and quantified by ELISA as per the manufacturer's instructions.
(In general: ELISA stands for enzyme-linked immunosorbent assay.)

Test [3] concerns rat NP cells (healthy/injured). Briefly: BrdU-ELISA cell proliferation assay. Particulars: rat-tail (healthy/injured) NP cells, 72 hrs. The procedure:
as §3

In test [4] the test system is human degenerative disc NP cells. Briefly: qRT-PCR with gene specific primers. Particulars: human degenerated disc NP cells, real time PCR. As to the method:
Total RNA from healthy and treated (IL-1β alone or in combination with TNFα) rat NP cells, were isolated using RNAeasy extraction kit (Cat #74134, Qiagen) and quantified using a Nanodrop spectrophotometer. Total RNA (˜400 ng) was reverse-transcribed using RT^2 First Strand Kit (Cat #330401, Qiagen) following the manufacturer's instructions for preparing cDNA. To evaluate the effect of IL-1β alone or in combination with TNFα on extra-cellular matrix (ECM) genes in rat NP cells, the RT^2 Profiler™ PCR Array Rat Extracellular Matrix & Adhesion Molecules (PARN-013Z, Qiagen) was used and compared with no treatment controls (NTC) in 3 independent experiments using real time PCR performed on ABI 7900HT 384-well Fast block machine. Data analysis including calculation of ΔΔCt values, fold changes and p-values was carried out using software available online (https://www.qiagen.com/ca). Total RNA was isolated from human degenerative disc NP cells (H1/H2) treated with CTGF, TGFβ1, CTGF+TGFβ1 to evaluate their effect on collagen 2, HAPLN1, versican and thrombospondin 1 using gene specific primers. Similarly, RNA was isolated from human NP cells were treated with […] alone or in combination TNFα in presence of CTGF and TGFβ1 to determine their effect on Cox2 and MMP-13 expression using qRT-PCR.
A general note: Real-time PCR tracks product formation cycle by cycle.

Test [5] shares this test system. Briefly: Caspase 3/7 Lumi-Glo assay, cytokine induced. The conditions noted are these: 48 hrs. The procedure: (§4) Apoptosis induced in NP cells (rat and human) as result of treatment with pro-inflammatory cytokines (IL-1β and TNFα) was determined using Caspase 3/7 and Caspase 9 specific Lumi-Glo assays (Promega, Madison). Briefly, NP cells were plated and treated with either IL-1β alone or in combination with TNFα only or in presence of CTGF and TGFβ1 for 48 hrs, followed by addition of specific reagents for Caspase 3/7 and Caspase 9 as per the manufacturer's instructions. Cells were incubated for another 4 hrs at 37° C., and plates were read in a multi-well luminescence plate reader.

Test [6] relates to rat degenerative disc NP cells. Briefly: Caspase 3/7 Lumi-Glo assay, cytokine induced. Particulars: 48 hrs. As to the method: as §4

“TGFβ1: Human recombinant transforming growth factor beta 1, Peprotech cat #100-21, identified in NCCM”: the “expression of MMP-3, MMP-13 and Cox2 proteins in presence of growth factor” value with rat NP cells was “reduced expression”. The “collagen 2 expression (Western blotting)” value in test [1] was “increase”. Moreover, the “DNA synthesis (BrdU incorporation)” value in test [2] and in test [3] was “Significant increase” in each case. The “mRNA levels of collagen 2, HAPLN1, versican and thrombospondin1 (THBS1)” value in test [4] is on record as “Increased mRNA levels”. The “cytokine (IL-1β and TNFα)-induced caspase 3/7 activity” value in test [5] and in test [6] was “significant decrease” in each case.
